Test results published in patent US6974885B2, “Method for isolating pharmaceutically exploitable etidronate disodium” (Schering AG, priority 2000, dated 2005).
Counter-ions that a name gives are not always drawn.

How the values were obtained:
[1] = Particle size analysis (RETSCH screen analysis); type: physicochemical; settings: for particle size distribution, fraction 0.1-0.2 mm / particle size distribution, fraction 0.1 mm / particle size distribution, fraction 0.2-0.5 mm / particle size distribution, fraction 0.5-0.8 mm / particle size distribution, fraction 0.8-1.0 mm / particle size distribution, fraction 1.0 mm: end product; for particle size distribution, fraction 0.1-0.2 mm: screen fraction 0.1-0.2 mm; for particle size distribution, fraction 0.1 mm: screen fraction 0.1 mm; for particle size distribution, fraction 0.2-0.5 mm: screen fraction 0.2-0.5 mm; for particle size distribution, fraction 0.5-0.8 mm: screen fraction 0.5-0.8 mm; for particle size distribution, fraction 0.8-1.0 mm: screen fraction 0.8-1.0 mm; for particle size distribution, fraction 1.0 mm: screen fraction 1.0 mm
Excerpt: A RETSCH screen analysis system was used.

[2] = Bulk density determination (graduated cylinder, unshaken); type: physicochemical; settings: end product
Protocol: Bulk Density Determination Bulk density was determined by means of a graduated cylinder (unshaken).

[3] = cited from earlier work

SMILES	particle size distribution, fraction 0.1-0.2 mm [1]	particle size distribution, fraction 0.1 mm [1]	particle size distribution, fraction 0.2-0.5 mm [1]	particle size distribution, fraction 0.5-0.8 mm [1]	particle size distribution, fraction 0.8-1.0 mm [1]	particle size distribution, fraction 1.0 mm [1]	bulk density [2]	particles <0.1 mm ([1]; maximum share of all particles)	particles >1 mm ([1]; maximum share of all particles)	solubility in organic solvents ([3]; all organic solvents)	water solubility ([3]; water)
CC(O)(P(=O)(O)O)P(=O)(O)O [Example 1, etidronate disodium]	23.8%	0.07%	27.3%	46.2%	2.16%	0.47%	0.48 g/mL	–	–	–	–
CC(O)(P(=O)(O)O)P(=O)(O)O [etidronate disodium, disodium salt of hydroxyethane-1,1-diphosphonicacid]	–	–	–	–	–	–	0.4 to 0.6 g/mL	≤ 5 wt. %	≤ 10 wt. %	nearly insoluble	high water solubility
CC(O)(P(=O)(O)O)P(=O)(O)O [Example 2, etidronate disodium]	0.07%	0.0%	19.7%	54.9%	15.6%	9.71%	0.51 g/mL	–	–	–	–
